Several values for one entry are separate records, joined by “and”; a condition that tells them apart may be missing. Identical values can stand only once. Bounds are passed on as bounds.

This experiment has as its system PDC tumor spheroids with HUVEC/MSC, viability. Kind of experiment: Anticancer human tumor 439559-082-T-J2-PDC patient-derived colon adenocarcinoma cell line growth inhibition [TAK]. The note with it: for viability, T/C: stronger effect = lower value. The essentials:
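Tumor cells were grown as spheroids with HUVEC and hMSC (60:25:15) and treated with targeted agents combined with TAK-243 or ipatasertib. Drugs were tested in half-log steps down from near the clinical Cmax, or from 10 microM where Cmax was unknown.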

[1] abbreviates: curve of first compound, second compound 0.3 µM.
The mark [2] stands for this setting: curve of first compound, second compound 0.949 µM.
Where [3] appears, read: curve of first compound, second compound 3 µM.
The mark [4] stands for this setting: curve of first compound, second compound 9.49 µM.
[5] abbreviates: curve of first compound, second compound 30 µM.
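Further: spheroids exposed to drugs for seven days before readout.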

In general, IC50 refers to the concentration that inhibits the measured activity by half. One may read the viability, T/C as the result in the treated group divided by that in the control group, in per cent. As to `COC1CC2CCC(C)C(O)(O2)C(=O)C(=O)N2CCCCC2C(=O)OC(C(C)CC2CCC(OCCO)C(OC)C2)CC(=O)C(C)C=C(C)C(O)C(OC)C(=O)C(C)CC(C)C=CC=CC=C1C` (stereo not drawn) + CC(C)NCC(C(=O)N1CCN(c2ncnc3c2C(C)CC3O)CC1)c1ccc(Cl)cc1, the IC50 by setting is: under setting [1], above 100 nM; under setting [2], above 100 nM; under setting [3], above 100 nM; under setting [4], above 100 nM; under setting [5], above 100 nM. Further, the viability, T/C is 110% (second compound 0.3 µM, first compound 0.000316 µM); 97.1% (second compound 0.3 µM, first compound 0.001 µM); 81.7% (second compound 0.3 µM, first compound 0.00316 µM); 90.4% (second compound 0.3 µM, first compound 0.01 µM); 83.7% (second compound 0.3 µM, first compound 0.0316 µM); 82% (second compound 0.3 µM, first compound 0.1 µM). For the same compound, the viability, T/C is 103% (second compound 0.949 µM, first compound 0.000316 µM); 88.6% (second compound 0.949 µM, first compound 0.001 µM); 85.9% (second compound 0.949 µM, first compound 0.00316 µM); 87.4% (second compound 0.949 µM, first compound 0.01 µM); 87.4% (second compound 0.949 µM, first compound 0.0316 µM); 79.8% (second compound 0.949 µM, first compound 0.1 µM). Further, the viability, T/C was 97.4% (second compound 3 µM, first compound 0.000316 µM); 101% (second compound 3 µM, first compound 0.001 µM); 87.6% (second compound 3 µM, first compound 0.00316 µM); 77.9% (second compound 3 µM, first compound 0.01 µM); 81.5% (second compound 3 µM, first compound 0.0316 µM); 77.3% (second compound 3 µM, first compound 0.1 µM). Further, the viability, T/C is, setting by setting: (second compound 9.49 µM, first compound 0.000316 µM) 91.4%; (second compound 9.49 µM, first compound 0.001 µM) 88.6%; (second compound 9.49 µM, first compound 0.00316 µM) 81.3%; (second compound 9.49 µM, first compound 0.01 µM) 73.7%; (second compound 9.49 µM, first compound 0.0316 µM) 75.2%; (second compound 9.49 µM, first compound 0.1 µM) 76.8%. Also, the viability, T/C is 93.1% (second compound 30 µM, first compound 0.000316 µM); 91.2% (second compound 30 µM, first compound 0.001 µM); 82.8% (second compound 30 µM, first compound 0.00316 µM); 77.7% (second compound 30 µM, first compound 0.01 µM); 79.1% (second compound 30 µM, first compound 0.0316 µM); 72.7% (second compound 30 µM, first compound 0.1 µM).
On to `CC(C)NCC(C(=O)N1CCN(c2ncnc3c2C(C)CC3O)CC1)c1ccc(Cl)cc1` (stereo not drawn), for which the viability, T/C reads like this: (compound 0.3 µM) 101% [middle of 10 runs]; (compound 0.949 µM) 94% [middle of 10 runs]; (compound 3 µM) 83.6% [middle of 10 runs]; (compound 9.49 µM) 80.9% [middle of 10 runs]; (compound 30 µM) 85.8% [middle of 10 runs]. The IC50 (compound alone, run of 02/28/2020) is above 30000 nM.
Turning to `Cn1cnc2c(F)c(Nc3ccc(Br)cc3Cl)c(C(=O)NOCCO)cc21` + CC(C)NCC(C(=O)N1CCN(c2ncnc3c2C(C)CC3O)CC1)c1ccc(Cl)cc1, the IC50 reads like this: under setting [1], above 3000 nM; under setting [2], above 3000 nM; under setting [3], above 3000 nM; under setting [4], above 3000 nM; under setting [5], above 3000 nM. Besides, the viability, T/C by setting is: (second compound 0.3 µM, first compound 0.00949 µM) 92.4%; (second compound 0.3 µM, first compound 0.03 µM) 82.1%; (second compound 0.3 µM, first compound 0.0949 µM) 80.9%; (second compound 0.3 µM, first compound 0.3 µM) 76.3%; (second compound 0.3 µM, first compound 0.949 µM) 68.9%; (second compound 0.3 µM, first compound 3 µM) 65.7%. For the same compound, the viability, T/C runs as follows: (second compound 0.949 µM, first compound 0.00949 µM) 104%; (second compound 0.949 µM, first compound 0.03 µM) 97.4%; (second compound 0.949 µM, first compound 0.0949 µM) 81%; (second compound 0.949 µM, first compound 0.3 µM) 77.2%; (second compound 0.949 µM, first compound 0.949 µM) 67.9%; (second compound 0.949 µM, first compound 3 µM) 69.4%. The viability, T/C was 102% (second compound 3 µM, first compound 0.00949 µM); 99.8% (second compound 3 µM, first compound 0.03 µM); 80.2% (second compound 3 µM, first compound 0.0949 µM); 68.2% (second compound 3 µM, first compound 0.3 µM); 72% (second compound 3 µM, first compound 0.949 µM); 63.3% (second compound 3 µM, first compound 3 µM). The viability, T/C reads like this: (second compound 9.49 µM, first compound 0.00949 µM) 99.2%; (second compound 9.49 µM, first compound 0.03 µM) 91.7%; (second compound 9.49 µM, first compound 0.0949 µM) 83.9%; (second compound 9.49 µM, first compound 0.3 µM) 72%; (second compound 9.49 µM, first compound 0.949 µM) 70.5%; (second compound 9.49 µM, first compound 3 µM) 64.7%. For the same compound, the viability, T/C is 93.6% (second compound 30 µM, first compound 0.00949 µM); 89.7% (second compound 30 µM, first compound 0.03 µM); 85.4% (second compound 30 µM, first compound 0.0949 µM); 75.2% (second compound 30 µM, first compound 0.3 µM); 69.5% (second compound 30 µM, first compound 0.949 µM); 66.3% (second compound 30 µM, first compound 3 µM).
`Cn1cnc2c(F)c(Nc3ccc(Br)cc3Cl)c(C(=O)NOCCO)cc21`: the viability, T/C by setting is: (compound 0.00949 µM) 101% and 110%; (compound 0.03 µM) 90.2% and 101%; (compound 0.0949 µM) 83.1% and 76.7%; (compound 0.3 µM) 71.4% and 79.2%; (compound 0.949 µM) 74.4% and 74.2%; (compound 3 µM) 65.5% and 64.2%. Moreover, the concentration for half-maximal inhibition (IC50) (curve of compound) is above 3000 nM.
As for `CC(C)n1nc(-c2ccc3oc(N)nc3c2)c2c(N)ncnc21`, the viability, T/C is 106% and 115% (compound 0.000316 µM); 99.2% and 110% (compound 0.001 µM); 97.8% and 105% (compound 0.00316 µM); 83.5% and 85.3% (compound 0.01 µM); 76% and 76.8% (compound 0.0316 µM); 69.8% and 74.7% (compound 0.1 µM). For the same compound, the half-maximal inhibitory concentration (IC50) (curve of compound) is above 100 nM.
Regarding `COC1CC2CCC(C)C(O)(O2)C(=O)C(=O)N2CCCCC2C(=O)OC(C(C)CC2CCC(OCCO)C(OC)C2)CC(=O)C(C)C=C(C)C(O)C(OC)C(=O)C(C)CC(C)C=CC=CC=C1C` (stereo not drawn), the viability, T/C was 110% and 103% (compound 0.000316 µM); 97.7% and 98.1% (compound 0.001 µM); 90.7% and 89.7% (compound 0.00316 µM); 82.7% and 90.2% (compound 0.01 µM); 90.9% and 86% (compound 0.0316 µM); 91.7% and 92.3% (compound 0.1 µM). The IC50 (curve of compound) was above 100 nM.
Turning to `COc1c(OCCCN2CCOCC2)ccc2c3n(c(=NC(=O)c4cnc(N)nc4)nc12)CCN3`, the viability, T/C was 103% and 116% (compound 0.00316 µM); 91% and 95.7% (compound 0.01 µM); 82.8% and 82.9% (compound 0.0316 µM); 75.8% and 72.9% (compound 0.1 µM); 68.9% and 70.3% (compound 0.316 µM); 66% and 72.5% (compound 1 µM). The 50% inhibitory concentration (IC50) (curve of compound) is above 1000 nM.
On to `CC(C)CC(NC(=O)CNC(=O)c1cc(Cl)ccc1Cl)B1OC(=O)CC(CC(=O)O)(C(=O)O)O1` (stereo not drawn), for which the viability, T/C is 111% and 114% (compound 0.000316 µM); 96.4% and 98.7% (compound 0.001 µM); 99.3% and 98.8% (compound 0.00316 µM); 93.5% and 90.3% (compound 0.01 µM); 85.8% and 77.8% (compound 0.0316 µM); 62.1% and 56.6% (compound 0.1 µM). For the same compound, under “curve of compound”, the half-maximal inhibitory concentration (IC50) was above 100 nM.
In the case of `CC(C)CC(NC(=O)C(Cc1ccccc1)NC(=O)c1cnccn1)B(O)O` (stereo not drawn), the viability, T/C runs as follows: (compound 31.6 pM) 111% and 105%; (compound 0.0001 µM) 104% and 98.9%; (compound 0.000316 µM) 102% and 98.8%; (compound 0.001 µM) 103% and 101%; (compound 0.00316 µM) 100% and 97.5%; (compound 0.01 µM) 66.4% and 69.6%. Further, the IC50 (curve of compound) is above 10 nM.

The values are drawn from PubChem BioAssay AID2060356 (Molecular Pharmacology Branch, DTP, NCI, 2025).
